Results as given in patent publication US20060276406A1, “Methods of treating hepatitis C virus” (Schering Corporation, priority 2005, published 2006).

Assays:
[1] = Treatment study: plasma Cmin after oral dosing for 14 days in HCV genotype-1 patients; assay type: in vivo, human; settings: for Plasma Mean Cmin at 0 hour (trough) predose: 14 days, preliminary mean
Protocol: FIG. 2 is a box plot showing trough plasma levels of a compound of Formula Ia measured on day 14 at various times when a compound of Formula Ia is administered twice per day (bid, left box) and when a compound of Formula Ia is administered three times per day (tid, right box). It has been determined that metabolism of compounds of the present invention is also affected by the patient's circadian rhythm. As shown in FIG. 2 (right hand box), plasma levels of the drug are highest in the morning, when measured 8 hours after the previous dose and before the morning dose is administered.

[2] = Solubility in water / aqueous systems; assay type: physicochemical

Plasma Mean Cmin at 0 hour (trough) predose ([1]; 100 mg BID oral, n = 12, HCV genotype-1 patients): Cmin = 12.7 ng/ml
Plasma Mean Cmin at 0 hour (trough) predose ([1]; 200 mg BID oral, n = 12, HCV genotype-1 patients): Cmin = 46.3 ng/ml
Plasma Mean Cmin at 0 hour (trough) predose ([1]; 400 mg BID oral, n = 11, HCV genotype-1 patients): Cmin = 48.8 ng/ml
Plasma Mean Cmin at 0 hour (trough) predose ([1]; 400 mg TID oral, n = 10, HCV genotype-1 patients): Cmin = 183 ng/ml
average Cmin plasma concentration maintained ([1]; all dosing regimens of Table 1): ≥ 10 ng/mL
solubility [2]: ~600 µg/mL
Structure (SMILES): CC(C)(C)NC(=O)N[C@H](C(=O)N1CC2C([C@H]1C(=O)NC(CC1CCC1)C(=O)C(N)=O)C2(C)C)C(C)(C)C (stereo partly drawn) [Formula Ia, (1R,5S)-N-[3-Amino-1-(Cyclobutylmethyl)-2,3-Dioxopropyl]-3-[2(S)-[[[(1,1-Dimethylethyl)Amino]Carbonyl]Amino]-3,3-Dimethyl-1-Oxobutyl]-6,6-Dimethyl-3-Azabicyclo[3.1.0]Hexan-2(S)-Carboxamide]
